Results published in ChEMBL document CHEMBL1909046, “DrugMatrix in vitro pharmacology data”.

Experiments:
[1] = molecular target: C-C chemokine receptor type 5 (Homo sapiens, UniProt P51681); assay type: cell membranes, Membrane; settings: hek293; further: in other assays of this panel Not Active means under 50% inhibition at 10 µM
[2] = molecular target: T1, Neuropeptide Y receptor type 2 (Homo sapiens, UniProt P49146); assay type: cell membranes, KAN-TS, Membrane; settings: kan-ts; further: in other assays of this panel Not Active means under 50% inhibition at 10 µM
T1 sequence (P49146 whole entry): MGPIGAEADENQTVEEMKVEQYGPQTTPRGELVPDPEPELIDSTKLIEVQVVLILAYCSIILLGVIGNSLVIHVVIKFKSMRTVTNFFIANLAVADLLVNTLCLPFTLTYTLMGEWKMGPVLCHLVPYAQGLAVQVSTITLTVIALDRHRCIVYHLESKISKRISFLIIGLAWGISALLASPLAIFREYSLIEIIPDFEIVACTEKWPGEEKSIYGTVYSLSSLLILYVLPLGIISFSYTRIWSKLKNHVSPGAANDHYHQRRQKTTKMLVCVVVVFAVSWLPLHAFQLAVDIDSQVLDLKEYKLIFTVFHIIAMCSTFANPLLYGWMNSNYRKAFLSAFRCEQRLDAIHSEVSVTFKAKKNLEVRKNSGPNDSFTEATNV

[3] = DRUGMATRIX: Atrial Natriuretic Factor (ANF) radioligand binding (ligand: [125I] ANF (rat)); assay type: cell membranes, Cavia porcellus, Dunkin-Hartley, Adrenal gland, Membrane; settings: Not Active = under 50% inhibition at 10 µM
[4] = DRUGMATRIX: Serotonin (5-Hydroxytryptamine) 5-HT3 radioligand binding (ligand: [3H] GR-65630); assay type: cell membranes, Membrane; settings: hek293; Not Active = under 50% inhibition at 10 µM
[5] = molecular target: Aldo-keto reductase family 1 member B1 (Rattus norvegicus, UniProt P07943); assay type: tissue-based, Lens of camera-type eye;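 further: inhibition of aldose reductase enzyme activity, measured with DL-glyceraldehyde as the substrate; in other assays of this panel Not Active means under 50% inhibition at 10 µM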
Mu-type opioid receptor = Mu-type opioid receptor (Homo sapiens, UniProt P35372); assay: DRUGMATRIX: Opiate mu (OP3, MOP) radioligand binding (ligand: [3H] Diprenorphine); assay type: cell membranes, CHO-K1, Membrane; settings: cho-k1; Not Active = under 50% inhibition at 10 µM
Mu-type opioid receptor, sequence (P35372 whole entry): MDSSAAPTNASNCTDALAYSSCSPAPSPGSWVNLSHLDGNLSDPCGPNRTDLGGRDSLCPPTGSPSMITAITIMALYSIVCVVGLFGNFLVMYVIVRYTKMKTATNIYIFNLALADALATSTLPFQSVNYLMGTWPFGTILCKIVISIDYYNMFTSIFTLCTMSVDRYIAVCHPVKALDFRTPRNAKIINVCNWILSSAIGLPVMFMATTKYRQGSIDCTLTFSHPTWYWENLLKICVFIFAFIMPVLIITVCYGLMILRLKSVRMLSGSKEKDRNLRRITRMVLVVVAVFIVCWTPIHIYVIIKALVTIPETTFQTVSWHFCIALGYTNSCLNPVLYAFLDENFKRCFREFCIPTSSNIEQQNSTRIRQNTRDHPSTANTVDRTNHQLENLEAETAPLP

[6] = molecular target: Sigma non-opioid intracellular receptor 1 (Homo sapiens, UniProt Q99720); assay: DRUGMATRIX: Sigma1 radioligand binding (ligand: [3H] Haloperidol); assay type: cell membranes, Jurkat, Membrane; settings: Not Active = under 50% inhibition at 10 µM; for Ki: read-out: Ki
Sigma non-opioid intracellular receptor 1, sequence (Q99720 whole entry): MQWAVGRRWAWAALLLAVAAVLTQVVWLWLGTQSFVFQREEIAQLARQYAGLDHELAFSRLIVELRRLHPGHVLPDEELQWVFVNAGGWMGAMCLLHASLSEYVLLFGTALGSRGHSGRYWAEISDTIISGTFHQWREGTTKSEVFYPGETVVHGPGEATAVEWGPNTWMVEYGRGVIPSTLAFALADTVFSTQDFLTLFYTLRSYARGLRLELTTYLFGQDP

C-C chemokine receptor type 5, sequence (P51681 whole entry): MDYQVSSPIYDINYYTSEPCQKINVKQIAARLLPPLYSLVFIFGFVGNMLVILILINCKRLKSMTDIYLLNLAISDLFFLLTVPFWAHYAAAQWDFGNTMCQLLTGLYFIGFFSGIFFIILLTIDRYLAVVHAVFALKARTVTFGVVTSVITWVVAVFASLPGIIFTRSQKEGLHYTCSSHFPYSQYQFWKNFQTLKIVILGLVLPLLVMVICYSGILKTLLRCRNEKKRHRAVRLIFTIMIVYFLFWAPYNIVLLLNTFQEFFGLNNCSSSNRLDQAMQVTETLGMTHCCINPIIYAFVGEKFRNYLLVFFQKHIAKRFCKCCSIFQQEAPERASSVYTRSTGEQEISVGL

SMILES | IC50 [1] | IC50 [2] | IC50 [3] | Ki [3] | IC50 [4] | Ki [4] | IC50 [5] | IC50 (Mu-type opioid receptor) | IC50 ([6]; jurkat) | IC50 ([6]; read-out: IC50) [nM] | Ki [6] [nM]
COC(=O)Nc1nc2ccc(C(=O)c3cccs3)cc2[nH]1 [NOCODAZOLE] | Not Active | Not Active | Not Active | Not Active | Not Active | Not Active | Not Active | Not Active | Not Active | – | –
C#CC1(O)CC[C@H]2[C@@H]3CCC4=CC(=O)CC[C@@H]4[C@H]3CC[C@@]21CC (some centres undefined) [NORGESTREL] | Not Active | Not Active | Not Active | Not Active | Not Active | Not Active | Not Active | Not Active | Not Active | – | –
COC(=O)Nc1nc2ccc([S+]([O-])c3ccccc3)cc2[nH]1 (centres undefined) [OXFENDAZOLE] | Not Active | Not Active | Not Active | Not Active | Not Active | Not Active | Not Active | Not Active | Not Active | – | –
CC(=O)O[C@H]1C(=O)[C@@]2(C)[C@H]([C@H](OC(=O)c3ccccc3)[C@]3(O)C[C@H](OC(=O)[C@H](O)[C@@H](NC(=O)c4ccccc4)c4ccccc4)C(C)=C1C3(C)C)[C@]1(OC(C)=O)CO[C@@H]1C[C@@H]2O [PACLITAXEL] | Not Active | Not Active | Not Active | Not Active | Not Active | Not Active | Not Active | Not Active | Not Active | – | –
CC(C)NCC(O)COc1cccc2[nH]ccc12 (centres undefined) [PINDOLOL] | Not Active | Not Active | Not Active | Not Active | Not Active | Not Active | Not Active | Not Active | Not Active | – | –
CCn1cc(C(=O)O)c(=O)c2cnc(N3CCCC3)nc21 [PIROMIDIC ACID] | Not Active | Not Active | Not Active | Not Active | Not Active | Not Active | Not Active | Not Active | Not Active | – | –
C[n+]1ccccc1/C=N/O.[Cl-] [PRALIDOXIME CHLORIDE] | Not Active | Not Active | Not Active | Not Active | Not Active | Not Active | Not Active | Not Active | Not Active | – | –
C[C@]12C=CC(=O)C=C1CC[C@@H]1[C@@H]2[C@@H](O)C[C@@]2(C)[C@H]1CC[C@]2(O)C(=O)CO [PREDNISOLONE] | Not Active | Not Active | Not Active | Not Active | Not Active | Not Active | Not Active | Not Active | Not Active | – | –
CC(=O)[C@H]1[C@H](C#N)C[C@H]2[C@@H]3CC=C4C[C@@H](O)CC[C@]4(C)[C@H]3CC[C@@]21C [PREGNENOLONE CARBONITRILE] | Not Active | Not Active | Not Active | Not Active | Not Active | Not Active | Not Active | Not Active | – | 21300 | 8950
CCCN(CCC)S(=O)(=O)c1ccc(C(=O)O)cc1 [PROBENECID] | Not Active | Not Active | Not Active | Not Active | Not Active | Not Active | Not Active | Not Active | Not Active | – | –
CCCNCC(O)COc1ccccc1C(=O)CCc1ccccc1 (centres undefined) [PROPAFENONE] | Not Active | Not Active | Not Active | Not Active | Not Active | Not Active | Not Active | Not Active | – | 2610 | 1100
CCCOc1ccc(C(=O)OCCN(CC)CC)cc1N [PROPARACAINE] | Not Active | Not Active | Not Active | Not Active | Not Active | Not Active | Not Active | Not Active | – | 238 | 100
CC(C)c1cccc(C(C)C)c1O [PROPOFOL] | Not Active | Not Active | Not Active | Not Active | Not Active | Not Active | Not Active | Not Active | Not Active | – | –
Oc1cccc(O)c1O [PYROGALLOL] | Not Active | Not Active | Not Active | Not Active | Not Active | Not Active | Not Active | Not Active | Not Active | – | –
